The source of these data is US20120283316A1, “Delivery of Therapeutic Agents Using Oligonucleotide-Modified Nanoparticles As Carriers” (priority 2009, published 2012).

By IC50 is commonly meant the concentration at which inhibition is half-maximal. In general, viability refers to the share of living cells, or the viability signal relative to a control.

For series [1], the system named is MCF7 cells. Kind of series: MTT assay (cytotoxicity) in MCF7 cells. It counts as cell-based. Particulars: Homo sapiens. Here is the method:
(§1) MCF7, SKOV-3 and MES-SA/Dx5 cells were purchased from American Type Culture Collection (ATCC, Manassas, Va., USA). […] MCF7 cells were cultured in Eagle's Minimum Essential Medium (EMEM) supplemented with 10% fetal bovine serum (FBS) and 0.01 mg/ml bovine insulin. SKOV-3 and MES-SA/Dx5 cells were cultured using McCoy's 5A modified media supplemented with 10% FBS. All experiments were performed in the aforementioned cell-specific media in a 5% CO2 incubator at 37° C.
(§2) Following 24 hours of growth, media was replaced with 200 μL of corresponding sample solutions, which were freshly prepared at varying concentrations in complete cell culture media. Cells in media containing 10% FBS with nothing added were used as controls. After 12 hours or 48 hours of treatment, cells were rinsed and cultured with fresh medium containing 0.5 mg/mL of MTT for an additional 3 hours. Following careful aspiration of MTT solution and media after MTT incubation, 200 μL of MTT solubilization solution was added to each well and thoroughly mixed. The optical density at 570 nm was measured using a Safire microplate reader (Tecan Systems, Inc., San Jose, Calif.). Background absorbance at 690 nm was subtracted. Values were expressed as a percentage of the control (incubated with media alone). All conditions were done in sextuplicate in two independent experiments for each cell line.

In series [2] the test system is MES-SA/Dx5 cells. The series is described as follows: MTT assay (cytotoxicity) in paclitaxel-resistant MES-SA/Dx5 cells. The class given is cell-based, human. Here is the method:
as §1, §2

Series [3] is described as follows: Dynamic light scattering (DLS) hydrodynamic size and dispersion in PBS. The note with it: 25 μM paclitaxel in PBS, DLS and TEM. It counts as physicochemical. Here is the method:
PTX-DNA-AuNPs or DNA-AuNPs were resuspended in 200 uL PBS buffer with oligonucleotide strands of an equivalent concentration of 25 μM. Hydrodynamic size measurements were conducted using the Zetasizer Nano ZS (Malvern, Worcestershire, U.K.). The size measurements were performed at 25° C. at a 173° scattering angle in disposable micro cuvettes (minimum volume 40 μL, Malvern, Worcestershire, U.K.). The mean hydrodynamic diameter was determined by cumulative analysis. Transmission Electron Microscopy (TEM) was performed using a 200 kV Hitachi H-8100 TEM (EPIC, Northwestern University). Diluted PTX-DNA-AuNPs in deionized water were pipetted onto a commercial carbon TEM grid (Ted Pella Inc., Redding, Calif.). Upon air drying for 2 hours, samples were then observed within a Hitachi H-8100 TEM.

Series [4] concerns SKOV-3 ovarian cancer cells. Kind of series: MTT assay (cytotoxicity) in SKOV-3 cells. The class given is cell-based. The note with it: Homo sapiens, SK-OV-3, paclitaxel-equivalent concentration. As to the method: MCF7, SKOV-3 and MES-SA/Dx5 cells were purchased from American Type Culture Collection (ATCC, Manassas, Va., USA). Media, Dulbecco's phosphate buffered saline (DPBS), and 0.25% trypsin/EDTA were purchased from Invitrogen (Carlsbad, Calif., USA). MCF7 cells were cultured in Eagle's Minimum Essential Medium (EMEM) supplemented with 10% fetal bovine serum (FBS) and 0.01 mg/ml bovine insulin. SKOV-3 and MES-SA/Dx5 cells were cultured using McCoy's 5A modified media supplemented with 10% FBS. All experiments were performed in the aforementioned cell-specific media in a 5% CO2 incubator at 37° C.
as §2, with “Briefly, cells were seeded on 96-well plates for 24 hours before the assay at a density of 1.5×10^4 cells/well. Following” for “Following”, “Following careful aspiration of MTT solution and media after MTT incubation, 200 μL of MTT solubilization solution was added to each well and thoroughly mixed.” left out, “All conditions were done in sextuplicate in two independent experiments for each cell line.” left out
(Formazan colour is commonly taken as a measure of viable cells.)

Series [5] has as its system MES-SA/Dx5 cells. Kind of series: Fluorescent TUNEL assay (apoptosis) in MES-SA/Dx5 cells. The class given is cell-based, human. Particulars: MES-SA/Dx5, 48 hours, 100 nM paclitaxel or DNA strand.
Procedure: MCF7 and MES-SA/Dx5 cells were seeded on 0.17 mm thick coverslips in 12-well plates at a density of 2×10^5 cells/well for 24 hours prior to fluorescent TUNEL assay. Cells were treated with nothing, DNA-AuNPs at a DNA strand concentration of 100 nM (negative controls), 100 nM of free paclitaxel and compound 1 (positive controls), PTX-DNA-AuNPs at the equivalent paclitaxel concentrations of 50 nM and 100 nM (samples), respectively, for 48 hours. Live cells were rinsed and stained in accordance with instructions and materials for adherent cultured cells provided by Chemicon International ApopTag Plus Fluorescein In situ Apoptosis Detection Kit S7111 (Temecula, Calif.). ApopTag utilizes the terminal deoxynucleotidyl transferase (TdT) enzyme to amplify the fluorescein-conjugated anti-digoxigenin antibody, a secondary antibody towards digoxigenin-labeled nucleotide-labeled 30-OH termini on DNA fragments. Images were acquired on a Zeiss LSM 510 inverted microscope (computer controlled using Zeiss Zen software).
MCF7 or MES-SA/Dx5 cells were incubated with drug-free DNA-AuNPs, free paclitaxel, compound 1 and PTX-DNA@AuNPs, respectively, at varying concentrations for 48 hours.

Structures are written as SMILES. Where two headings read alike, the source gives them in different places.

Turning to `CC(=O)O[C@H]1C(=O)[C@@]2(C)[C@H]([C@H](OC(=O)c3ccccc3)[C@]3(O)C[C@H](OC(=O)[C@H](O)[C@@H](NC(=O)c4ccccc4)c4ccccc4)C(C)=C1C3(C)C)[C@]1(OC(C)=O)CO[C@@H]1C[C@@H]2O` [paclitaxel], the half-inhibitory concentration (IC50) in series [1] (MCF7, 12 h incubation, paclitaxel-equivalent concentration, read-out: IC50 (nM Paclitaxel)) was greater than 1000 nM; in series [1] (MCF7, 12 hour incubation, read-out: IC50 value) it was greater than 1000 nM; in series [1] (MCF7, 48 h incubation, paclitaxel-equivalent concentration, read-out: IC50 (nM Paclitaxel)), 193 nM; in series [2] (Homo sapiens, MES-SA/Dx5, 12 h incubation, paclitaxel-equivalent concentration, read-out: IC50 (nM Paclitaxel)), greater than 1000 nM; in series [2] (Homo sapiens, MES-SA/Dx5, 48 h incubation, paclitaxel-equivalent concentration, read-out: IC50 (nM Paclitaxel)), greater than 1000 nM; in series [2] (Homo sapiens, resistant MES-SA/Dx5 cells, 12 hours and 48 hours, read-out: IC50 values), greater than 1000 nM. The IC50 in series [4] (SKOV-3, 12 h incubation) stood at 176 nM; in series [4] (SKOV-3, 48 h incubation) it was 28.9 nM. For the same compound, in series [2] (Homo sapiens, 48 h, MES-SA/Dx5, 2 days incubation, 200 nM drug concentration, % of control, read-out: cell viability), the viability at 0.2 µM came out at 76%. Further, the therapeutic activity entry in series [2] (paclitaxel-resistant MES-SA/Dx5, 200 nM, 2 days) is given as “did not display any significant therapeutic activity”. Moreover, the “dispersion in PBS” value in series [3] is recorded as “severe aggregation”. In addition, the “TUNEL staining (apoptosis)” value in series [5] is reported as “lower fraction of TUNEL-positive signals”.
